Test results: patent US20150335678A1, “METHOD OF ACTIVATING STEM CELLS IN AN ANIMAL AND THE USE OF CHLORINE DIOXIDE FOR PREPARING MEDICINES FOR ACTIVATING STEM CELLS IN AN ANIMAL” (priority 2012, published 2015)

Key:
[1] = test system: VE cadherin-positive mononuclear cells; assay: VE cadherin-positive mononuclear cells in peripheral blood of lower limb DVT patients, flow cytometry; assay type: in vivo, human; settings: before administration 0.44 ± 0.70, diluted solution 10 ml/body/day femoral artery puncture, 14 days
From the text: The subjects consisted of 14 male and 6 female lower limb DVT patients with the unilateral limb suffer from the illness, aged from 59 to 76 years old (average age: 67.2 years old). The purpose of the clinical test was explained to all subjects and their consent was obtained before conducting the clinical test.
The first solution was a mixed solution made of sodium chlorite with the concentration of 7.47% and sodium chloride with the concentration of 1.59% with deionized water; the second solution was made of citric acid with the concentration of 16.7% with deionized water. Same volume of solutions were taken out from different vessels with different volumes and mixed up. […]
Five ml of peripheral blood was collected from the median cubital vein of the forearm of each patient using low molecular weight heparin anticoagulant before administration (before initial administration) and on day 7 and 14 after administration, and the collected blood was immediately stored at 4° C. and measured within 6 hours after collection. […]
VE Cadherin-positive mononuclear cells were isolated by immunofluorescent stain using flow cytometry. […] Next, VE cadherin-positive mononuclear cells were isolated and counted by flow cytometry. The ratio (%) of VE cadherin-positive mononuclear cells among the mononuclear cells was calculated according to the following formula. […]

[2] = test system: BrdU-positive cells (neural stem cells and neural progenitor cells); assay: BrdU-positive and BrdU-positive/nestin-positive (proliferating) cells in the SVZ region; assay type: in vivo, Sprague-Dawley rats; settings: for number of BrdU-positive cells in the SVZ region, proliferation (mean±SD): BrdU on day 5, 6, 12, 13, 19, 20
Method: (§1) Male Sprague-Dawley rats with the age of 12 weeks and weight of 250^˜280 g were used in the experiment after acclimating for a week.
(§2) A middle cerebral artery occlusion model was first established in compliance with the method of Longa E Z et al. (Longa E Z, et al. Reversible middle cerebral artery occlusion without craniectomy in rats. Stroke 20:84-91, 1989). More specifically, 0.36 g/kg of 10% chloral hydrate was administered intraperitoneally to rats which had been fasted for 12 hours (although given free access to water) to anesthetize the rats. Next, a midline incision was made in the neck to expose the right common carotid artery. Then, the internal carotid artery and external carotid artery were separated, the posterior carotid artery, which is a branch of the external carotid artery, and the thyroidea arteria were coagulated and severed, the external carotid artery was ligated at the branch of the lingual artery and maxillary artery, a small puncture was formed in the external carotid artery, 4-0 Nylon suture was passed through the common carotid artery from the puncture, and gradually inserted into the internal carotid artery until there was resistance. The length of the Nylon suture was about 18^˜20 mm from the branch of the common carotid artery. As a result of occluding the middle cerebral artery with Nylon suture, an ischemic state was applied for 2 hours to create a middle cerebral artery occlusion model.
(§3) A cerebral ischemia/reperfusion injury model was established by removing the Nylon suture from the middle cerebral artery of the occlusion model and following reperfusion of blood.
(§4) The first solution was a mixed solution made of sodium chlorite with the concentration of 7.47% and sodium chloride with the concentration of 1.59% with deionized water; the second solution was made of citric acid with the concentration of 16.7% with deionized water. Same volume of solutions were taken out from different vessels with different volumes and mixed up. Allow the solution to mix for 3-5 minutes and dilute it five times with normal saline, and then filter it with 0.22 μm filter membrane of double-deck. The solution was immediately put into injector. The solution was prepared once being used.
(§5) Treatment group (120 rats): A cerebral ischemia/reperfusion injury model was established for the rats already. To administer chlorine dioxide solution everytime that prepared from procedure (3) through carotid artery after the second day the model has established, once a day for total ten days.
On day 5, 6, 12, 13, 19 and 20 after the model established, 50 mg/kg of 5-bromodeoxyuridine was injected intraperitoneally into 30 rats in each group. Because BrdU is a thymidine analog, it can incorporate into the DNA of cells during the course of cell proliferation (DNA synthesis). Thus, cell proliferation can be analyzed by detecting the amount of intracellular BrdU. The rats were autopsied on day 7, 14 and 21 after the model established for preparation of frozen brain sections. The presence of BrdU-positive cells by immunochemical stain, and the presence of BrdU-positive/nestin-positive cells by double-immunofluorescent stain in the SVZ region were analyzed.
The presence of BrdU-positive cells was analyzed using mouse anti-rat BrdU monoclonal antibody.
The presence of BrdU-positive/nestin-positive cells was analyzed by double-immunofluorescent stain using a combination of primary antibody of goat anti-rat BrdU polyclonal antibody and secondary antibody of FITC-labeled rabbit anti-goat antibody, and a combination of primary antibody of mouse anti-rat nestin monoclonal antibody and secondary antibody of Rho-labeled rabbit anti-mouse antibody.
(§6) BRt(%)=(Bt−St)/(Mt−St)×100

[3] = test system: BrdU-positive (migrating) cells; assay: BrdU-positive (migrating) cells in the SVZ region; assay type: in vivo, Sprague-Dawley rats; settings: for number of BrdU-positive cells in the SVZ region, migration (mean±SD): BrdU twice within 24 hours after model established
Method: as §1, §2, §3, §4, §5
Thirty Rats in each group were intraperitoneally injected twice with 50 mg/kg of BrdU within 24 hours after model established. The rats were autopsied on day 7, 14 and 21 after model established for preparation of frozen brain sections. The presence of BrdU-positive cells in the SVZ region was analyzed by immunochemical stain using mouse anti-rat BrdU monoclonal antibody.
as §6

alopecia areata = assay: Alopecia areata patients, topical solution with dimethyl sulfoxide (Example 4); assay type: in vivo, human
Method: The first solution was a mixed solution made of sodium chlorite with the concentration of 7.47% and sodium chloride with the concentration of 1.59% with deionized water; the second solution was made of citric acid with the concentration of 16.7% with deionized water.
Same volume of solutions were taken out from different vessels with different volumes and put into the suitable glass or plastic cups prepared. Allow the solution to mix for 3-5 minutes and then filter the solution with 0.22 μm filter membrane of double-deck, dimethyl sulfoxide was added in a ratio of 1:1, and then smear solution over the alopecia areata with the swab, waiting for 1-2 hours before cleaning the head, the drug was administered once a day according to the method. The first period lasted for 15-25 days, then the drug was stopped for 2-5 months; The second period lasted for 15-25 days in the light of the situation.
The subjects consisted of 11 male alopecia areata patients and a patient (the patients are between 22-40 years old.) They administered the activating agent of stem cell as volunteers, see Table 12.

[4] = test system: skin and eye mucous membrane; settings: content of chlorine dioxide 9.7˜11.4 mg/L; 48 h; cited from earlier work

Structure (SMILES): [O][Cl+][O-] [chlorine dioxide solution, chlorine dioxide]
- VE Cadherin-Positive Mononuclear Cells (ratio among mononuclear cells, mean±SD) ([1]; Day 7 after administration, n=20): 1.5 ± 1.11 %
- VE Cadherin-Positive Mononuclear Cells (ratio among mononuclear cells, mean±SD) ([1]; Day 14 after administration, n=15): 1.91 ± 1.65 %
- BRt: BrdU-positive cells (proliferation) in treatment group relative to model group = 100% ([2]; Day 7): 157.4%
- number of BrdU-positive cells in the SVZ region, proliferation (mean±SD) ([2]; Day 7, model group 136.56 ± 9.93, sham 52.8 ± 3.85, diluted solution via carotid artery once a day, ten days): 184.61 ± 12.3 No. cells/mm2
- BRt: BrdU-positive cells (proliferation) in treatment group relative to model group = 100% ([2]; Day 14): 156.9%
- number of BrdU-positive cells in the SVZ region, proliferation (mean±SD) ([2]; Day 14, model group 328.6 ± 12.5, sham 33.9 ± 2.95): 496.2 ± 30.6 No. cells/mm2
- BRt: BrdU-positive cells (proliferation) in treatment group relative to model group = 100% ([2]; Day 21): 141.2%
- number of BrdU-positive cells in the SVZ region, proliferation (mean±SD) ([2]; Day 21, model group 279.9 ± 12.8, sham 23.9 ± 1.95): 385.3 ± 20.9 No. cells/mm2
- presence of proliferating nestin-positive/BrdU-positive cells in the SVZ region ([2]; treatment group, double-immunofluorescent stain): confirmed
- BRt: BrdU-positive (migrating) cells in treatment group relative to model group = 100% ([3]; Day 7): 121.0%
- number of BrdU-positive cells in the SVZ region, migration (mean±SD) ([3]; Day 7, model group 136.56 ± 15.63, sham 2.85 ± 1.05, diluted solution via carotid artery once a day, ten days): 164.61 ± 16.3 No. cells/mm2
- BRt: BrdU-positive (migrating) cells in treatment group relative to model group = 100% ([3]; Day 14): 144.7%
- number of BrdU-positive cells in the SVZ region, migration (mean±SD) ([3]; Day 14, model group 78.6 ± 8.5, sham 3.39 ± 1.35): 112.2 ± 10.6 No. cells/mm2
- BRt: BrdU-positive (migrating) cells in treatment group relative to model group = 100% ([3]; Day 21): 227.1%
- number of BrdU-positive cells in the SVZ region, migration (mean±SD) ([3]; Day 21, model group 34.9 ± 5.48, sham 3.11 ± 1.05): 75.3 ± 8.39 No. cells/mm2
- distribution of BrdU-positive cells in SVZ region ([3]; treatment group, in model group only on the surface of the SVZ region): widely distributed from the surface to interior of the SVZ region
- time until new hair equably grew, second period of administration (alopecia areata; course of disease more than 12 months, 7 patients): equably grow 3-5 days.
- time until new hair grew along the alopecia areata area, first period of administration (alopecia areata; course of disease more than 12 months, 7 patients, NaClO2 7.47% + citric acid 16.7% 1:1, DMSO 1:1, smeared once a day): 3-5 days after
- time until new hair grew, second period of administration (alopecia areata; course of disease within 12 months, 5 patients): 3-5 days after
- time until new hair grew, first period of administration (alopecia areata; course of disease within 12 months, 5 patients, NaClO2 7.47% + citric acid 16.7% 1:1, DMSO 1:1, smeared once a day 15-25 days): 3-5 days after
- hair fell off, second period of administration (alopecia areata; course of disease within 12 months, 5 patients, second period 15-25 days after 2-5 months off): About 50% of hair fell
- stimulation score to skin and eye mucous membrane [4]: 0
